Assay results as given in PubChem BioAssay (NCI).
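The compound was tested at five concentrations on cells cultured in 96-well plates, with a 48-hour exposure period. The concentration for 50% growth inhibition is given as GI50. At the TGI there is no net growth.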

Assays:
Assay in all cases: inhibition of tumour cell growth, NCI panel, 48 h
SK-MEL-2 melanoma = tested on: SK-MEL-2 melanoma
HOP-62 NSCLC = tested on: HOP-62 NSCLC
A549 NSCLC = tested on: A549 NSCLC
HT29 colon = tested on: HT29 colon
OVCAR-5 ovarian = tested on: OVCAR-5 ovarian
MOLT-4 leukemia = tested on: MOLT-4 leukemia
SR leukemia = tested on: SR leukemia
PC-3 prostate = tested on: PC-3 prostate
TK-10 renal = tested on: TK-10 renal
MALME-3M melanoma = tested on: MALME-3M melanoma
T-47D breast = tested on: T-47D breast
SF-268 CNS = tested on: SF-268 CNS
UO-31 renal = tested on: UO-31 renal
M14 melanoma = tested on: M14 melanoma
NCI-H226 lung = tested on: NCI-H226 lung
SK-MEL-5 melanoma = tested on: SK-MEL-5 melanoma
HS 578T breast = tested on: HS 578T breast
HOP-92 NSCLC = tested on: HOP-92 NSCLC
NCI-H522 lung = tested on: NCI-H522 lung
SF-295 CNS = tested on: SF-295 CNS
SK-MEL-28 melanoma = tested on: SK-MEL-28 melanoma
EKVX NSCLC = tested on: EKVX NSCLC
HL-60(TB) leukemia = tested on: HL-60(TB) leukemia
HCT-15 colon = tested on: HCT-15 colon
BT-549 breast = tested on: BT-549 breast
K-562 leukemia = tested on: K-562 leukemia
CCRF-CEM leukemia = tested on: CCRF-CEM leukemia
SNB-75 CNS = tested on: SNB-75 CNS
OVCAR-8 ovarian = tested on: OVCAR-8 ovarian
MDA-MB-435 = tested on: MDA-MB-435
SF-539 CNS = tested on: SF-539 CNS
MCF7 breast = tested on: MCF7 breast
U251 CNS = tested on: U251 CNS
KM12 colon = tested on: KM12 colon
SK-OV-3 ovarian = tested on: SK-OV-3 ovarian
SW-620 colon = tested on: SW-620 colon
NCI-H23 lung = tested on: NCI-H23 lung
HCC-2998 colon = tested on: HCC-2998 colon
786-0 renal = tested on: 786-0 renal
NCI-H460 lung = tested on: NCI-H460 lung
LOX IMVI melanoma = tested on: LOX IMVI melanoma
MDA-MB-231 breast = tested on: MDA-MB-231 breast
DU-145 prostate = tested on: DU-145 prostate
SN12C renal = tested on: SN12C renal
COLO 205 colon = tested on: COLO 205 colon
UACC-62 melanoma = tested on: UACC-62 melanoma
NCI/ADR-RES ovarian = tested on: NCI/ADR-RES ovarian
CAKI-1 renal = tested on: CAKI-1 renal
RPMI-8226 leukemia = tested on: RPMI-8226 leukemia
OVCAR-3 ovarian = tested on: OVCAR-3 ovarian
ACHN renal = tested on: ACHN renal
SNB-19 CNS = tested on: SNB-19 CNS
IGROV1 ovarian = tested on: IGROV1 ovarian
HCT-116 colon = tested on: HCT-116 colon
OVCAR-4 ovarian = tested on: OVCAR-4 ovarian

CC(C)(Oc1ccc(Cl)cc1)C(=O)NC1C2CC3CC1CC(NS(C)(=O)=O)(C3)C2 (stereo not given)
GI50 (SK-MEL-2 melanoma): > 100 µM | TGI (SK-MEL-2 melanoma): > 100 µM | GI50 (HOP-62 NSCLC): > 100 µM | TGI (HOP-62 NSCLC): > 100 µM | GI50 (A549 NSCLC): > 100 µM | TGI (A549 NSCLC): > 100 µM | GI50 (HT29 colon): > 100 µM | TGI (HT29 colon): > 100 µM | GI50 (OVCAR-5 ovarian): 68.4 µM | TGI (OVCAR-5 ovarian): > 100 µM | GI50 (MOLT-4 leukemia): 20.7 µM | TGI (MOLT-4 leukemia): 84.6 µM | GI50 (SR leukemia): 18.5 µM | TGI (SR leukemia): 58.9 µM | GI50 (PC-3 prostate): 30.7 µM | TGI (PC-3 prostate): > 100 µM | GI50 (TK-10 renal): > 100 µM | TGI (TK-10 renal): > 100 µM | GI50 (MALME-3M melanoma): 55.5 µM | TGI (MALME-3M melanoma): > 100 µM | GI50 (T-47D breast): > 100 µM | TGI (T-47D breast): > 100 µM | GI50 (SF-268 CNS): > 100 µM | TGI (SF-268 CNS): > 100 µM | GI50 (UO-31 renal): > 100 µM | TGI (UO-31 renal): > 100 µM | GI50 (M14 melanoma): 26.2 µM | TGI (M14 melanoma): 80.1 µM | GI50 (NCI-H226 lung): > 100 µM | TGI (NCI-H226 lung): > 100 µM | GI50 (SK-MEL-5 melanoma): > 100 µM | TGI (SK-MEL-5 melanoma): > 100 µM | GI50 (HS 578T breast): 33.2 µM | TGI (HS 578T breast): > 100 µM | GI50 (HOP-92 NSCLC): 19 µM | TGI (HOP-92 NSCLC): 69.1 µM | GI50 (NCI-H522 lung): > 100 µM | TGI (NCI-H522 lung): > 100 µM | GI50 (SF-295 CNS): > 100 µM | TGI (SF-295 CNS): > 100 µM | GI50 (SK-MEL-28 melanoma): 26.8 µM | TGI (SK-MEL-28 melanoma): > 100 µM | GI50 (EKVX NSCLC): > 100 µM | TGI (EKVX NSCLC): > 100 µM | GI50 (HL-60(TB) leukemia): 22.7 µM | TGI (HL-60(TB) leukemia): 58.8 µM | GI50 (HCT-15 colon): > 100 µM | TGI (HCT-15 colon): > 100 µM | GI50 (BT-549 breast): 29.1 µM | TGI (BT-549 breast): 83.2 µM | GI50 (K-562 leukemia): 34.3 µM | TGI (K-562 leukemia): > 100 µM | GI50 (CCRF-CEM leukemia): 39.1 µM | TGI (CCRF-CEM leukemia): > 100 µM | GI50 (SNB-75 CNS): 42.8 µM | TGI (SNB-75 CNS): > 100 µM | GI50 (OVCAR-8 ovarian): > 100 µM | TGI (OVCAR-8 ovarian): > 100 µM | GI50 (MDA-MB-435): > 100 µM | TGI (MDA-MB-435): > 100 µM | GI50 (SF-539 CNS): 37.5 µM | TGI (SF-539 CNS): > 100 µM | GI50 (MCF7 breast): > 100 µM | TGI (MCF7 breast): > 100 µM | GI50 (U251 CNS): > 100 µM | TGI (U251 CNS): > 100 µM | GI50 (KM12 colon): > 100 µM | TGI (KM12 colon): > 100 µM | GI50 (SK-OV-3 ovarian): > 100 µM | TGI (SK-OV-3 ovarian): > 100 µM | GI50 (SW-620 colon): > 100 µM | TGI (SW-620 colon): > 100 µM | GI50 (NCI-H23 lung): > 100 µM | TGI (NCI-H23 lung): > 100 µM | GI50 (HCC-2998 colon): > 100 µM | TGI (HCC-2998 colon): > 100 µM | GI50 (786-0 renal): 37.4 µM | TGI (786-0 renal): > 100 µM | GI50 (NCI-H460 lung): > 100 µM | TGI (NCI-H460 lung): > 100 µM | GI50 (LOX IMVI melanoma): > 100 µM | TGI (LOX IMVI melanoma): > 100 µM | GI50 (MDA-MB-231 breast): 66.8 µM | TGI (MDA-MB-231 breast): > 100 µM | GI50 (DU-145 prostate): > 100 µM | TGI (DU-145 prostate): > 100 µM | GI50 (SN12C renal): > 100 µM | TGI (SN12C renal): > 100 µM | GI50 (COLO 205 colon): > 100 µM | TGI (COLO 205 colon): > 100 µM | GI50 (UACC-62 melanoma): 24.1 µM | TGI (UACC-62 melanoma): > 100 µM | GI50 (NCI/ADR-RES ovarian): > 100 µM | TGI (NCI/ADR-RES ovarian): > 100 µM | GI50 (CAKI-1 renal): > 100 µM | TGI (CAKI-1 renal): > 100 µM | GI50 (RPMI-8226 leukemia): 20.9 µM | TGI (RPMI-8226 leukemia): 68.1 µM | GI50 (OVCAR-3 ovarian): > 100 µM | TGI (OVCAR-3 ovarian): > 100 µM | GI50 (ACHN renal): 27.4 µM | TGI (ACHN renal): > 100 µM | GI50 (SNB-19 CNS): > 100 µM | TGI (SNB-19 CNS): > 100 µM | GI50 (IGROV1 ovarian): 54.9 µM | TGI (IGROV1 ovarian): > 100 µM | GI50 (HCT-116 colon): 38.5 µM | TGI (HCT-116 colon): > 100 µM | GI50 (OVCAR-4 ovarian): 23.3 µM | TGI (OVCAR-4 ovarian): > 100 µM
